Entries after “also recorded” stand apart in the source; their conditions may differ.
Tests used:
[1] = tested on: MLC phosphorylation; test: Phospho-myosin light chain immunostaining, MPNST cell lines; assay type: cell-based, mouse
Protocol: (§1) Cell Morphology Assays and Confocal Microscopy: To assay cytoskeleton morphology, KR158 cells, mouse primary astrocytes, KR158 clones expressing the NF1-GRD constructs, K14553 cells, and A549 were seeded to cover slips and allowed to reattach overnight. Cells were treated for 18 hours with either the indicated concentrations of SA, or the vehicle control DMSO. The cover slips were fixed in 3.7% paraformaldehyde, permeablized in 0.1% Triton-X100, and stained with Alexa Fluor 488-phalloidin (Invitrogen, Carlsbad, Calif., USA) to detect actin and cells were mounted in Prolong Antifade containing DAPI (Invitrogen) to stain nuclei. The cells were imaged on a LSM510 confocal microscope (Carl Zeiss Inc., Jena, Germany). For phospho-myosin light chain 2 (MLC) detection, cells were seeded to coverslips as described above. Cells were serum starved in 0.5% FBS and SA or DMSO vehicle control for 18 hours, and then pulsed with 10 ng/mL EGF (Invitrogen) for 5 min. […] Actin structures were monitored continuously over a 16 hr period using confocal microscopy equipped with a growth chamber (37° C., humidified atmosphere and 5% CO2). […]

[2] = tested on: MPNST K14553 cells; test: XTT cell proliferation assay, K14553; assay type: cell-based, mouse
Protocol: Establishment of NPcis MPNST cell lines: Mice were euthanized by CO2 asphyxiation and tumors were dissected. The tumor volume was measured. The tumor was then cut in half, and ½ fixed in 4% PFA. The other half was rinsed, then cut into 24 pieces of approximately equal size. Each piece was diced with a razor blade and placed in 1 well of a 24 well plate, along with 625 μL of Triple Express (Gibco, Grand Island, N.Y., USA) and 5 μL of recombinant DNAse (Roche, Indianapolis, Ind., USA). Tumors were triturated, then incubated at 37° C. in a 5% CO2 incubator for 2-5 hours, with an additional trituration halfway through incubation time. At the end of the incubation, tumor pieces were triturated again, and suspended cells were transferred to 1.5 mL eppendorf tubes. […] Both plates were monitored for cell growth, grown up to 10 cm plates, and frozen down in 10% DMSO. […]
XTT Cell Proliferation Assay: Cells were seeded into 96-well plates at a density of 2,000 cells/well and allowed to reattach overnight. Cells were treated with SA, synthetic analogs, camptothecin (NCI Chemotherapeutics Repository, Md., USA), or DMSO control at the indicated concentrations continuously for 48 hours followed by assay in the 96-well plate for relative viable cell number using the dye […] (XTT) and a Wallac-Victor 2 plate reader (Perkin-Elmer, Waltham, Mass., USA). […]

[3] = tested on: A549 cells; test: Cell morphology / actin confocal microscopy, A549; assay type: cell-based, human; conditions: 18 hours treatment
Protocol: as §1

CC(C)=CCC/C(C)=C/Cc1c(O)cc(/C=C/c2cc(O)c3c(c2)C[C@@H]2C(C)(C)[C@H](O)[C@H](O)C[C@@]2(C)O3)cc1O [SA, Schweinfurthin A]
MLC phosphorylation [1]: reduced MLC phosphorylation | inhibition of proliferation (percent viability versus control) [2]: dose dependent inhibition of proliferation; also recorded: sensitive | actin organization, phalloidin staining [3]: no visible changes in actin organization
